Tests used:
[1] = precipitation concentration (super solubility) of L-glutamic acid in culture medium at pH 4.5 with added L-lysine; type: physicochemical, Pantoea ananatis AJ13601; conditions: pH 4.5 culture
Experimental: Cells of the Pantoea ananatis AJ13601 strain cultured at 30° C. for 14 hours in the LBG agar medium (10 g/L of trypton, 5 g/L of yeast extract, 10 g/L of NaCl, 15 g/L of agar) containing 25 mg/L of tetracycline hydrochloride and 25 mg/L of chloramphenicol were scraped from one plate and inoculated into 300 ml of seed culture medium having the following composition and contained in a 1 L-volume jar fermenter, and seed culture was performed at 34° C. and pH 6.0.
The pH was adjusted to 6.0 by adding ammonia gas during the culture. The seed culture was finished by observing depletion of the saccharide in the medium as an index, and the seed culture medium of 20% volume of the main culture medium was inoculated into 300 ml of the main culture medium contained in a 1 L-volume jar fermenter to perform the main culture under the conditions of 34° C. and pH 4.5. The composition of the main culture medium is shown below.
The pH was adjusted to 4.5 by adding ammonia gas during the culture. After the saccharide in the medium was consumed and depleted, 700 g/L of glucose aqueous solution was continuously added (6 ml/hr).
The liquid supernatant of the culture medium was obtained by centrifuging the culture medium at 10000×G for 1 minute. The polymorphism of crystals which precipitated in the culture medium was determined by microscopic observation.

[2] = crystal form of L-glutamic acid crystals precipitated in a cooling-crystallization system with added amino acid; type: physicochemical; conditions: FIG. 7

Row | Structure (SMILES) | concentration of added L-lysine above which α-form crystals form naturally without seed crystals [1] | control of precipitated L-glutamic acid crystal form by added amino acid ([2]; pH 4.5, super saturation 2, 34° C.) | control of precipitated L-glutamic acid crystal form by added amino acid ([2]; pH 3.2, super saturation 2, 34° C.) | control of precipitated L-glutamic acid crystal form by added amino acid ([2]; pH 4.5 or more, super saturation 2, 34° C.)
1 | NCCCC[C@H](N)C(=O)O [L-lysine] | exceeds 900 mg/L | could be controlled to the α-form | – | –
2 | N[C@@H](Cc1ccccc1)C(=O)O [L-phenylalanine] | – | – | showed the same effect | such an effect could not be observed
